Reference: PMC11062899, “De novo development of small cyclic peptides that are orally bioavailable” (Nature Chemical Biology, 2023)

Target: human α-thrombin (Homo sapiens, UniProt P00734)
Experiment: Sub-library screen for active and permeable cyclic peptides (PAMPA plus thrombin inhibition)
Format: biochemical
Details: crude, slopes normalized to DMSO; for Residual thrombin activity: Top sample: PAMPA acceptor well after 14 h, 5 μM donor; for Residual thrombin activity: Equilibrated sample: donor sample diluted to theoretical equilibrium (1 μM in assay)
Protocol: Linear dithiol peptides were synthesized in fritted 5-ml polypropylene syringes on a MultiPep RSi parallel peptide synthesizer (Intavis) by standard Fmoc-based solid-phase peptide synthesis on cysteamine 2-chlorotrityl resin (Sigma-Aldrich, 8.56000, 1.63 mmol g^−1 loading, 25 μmol scale) as described above with small changes. Amino acids (65 μmol, 2.6 eq.) were activated with HATU (63 μmol, 2.5 eq.) and NMM (145 μmol, 5.8 eq.) in 280 μl of DMF and 5 μl of NMP and let to react with the resin (25 μmol, 1 eq.) for 45 min. Couplings were performed twice for each amino acid. Resin was washed once with 800 μl of DMF, and unreacted amines were capped with 5% acetic anhydride and 6% 2,6-lutidine in 400 μl of DMF for 5 min. The resin was washed six times with 600 μl of DMF, and Fmoc protecting groups were removed by incubating the resin twice with 450 μl of a 20% piperidine solution in DMF for 5 min. The resin was washed six times with 600 μl of DMF before proceeding to the next coupling cycle. After completing the last coupling cycle, the resin was washed six times with […] of DCM. Peptide cleavage and ether precipitation were carried out as described above. After quantification with Ellman’s reagent, 1 μmol of each peptide was transferred in seven replicates to new Nunc 96-well DeepWell polypropylene plates and lyophilized. Peptides were cyclized as described above to afford 20 mM cyclic peptide stock solutions in DMSO containing 160 mM HEPES sodium salt. The amine on cyclic peptides was acylated with 5-chlorothiophene-2-carboxylic acid as follows. A 160 mM solution in 5-chlorothiophene-2-carboxylic acid was prepared in DMSO containing 160 mM HEPES sodium salt, and the acid was activated by mixing in equal volumes with a 160 mM HSTU solution in DMSO. Then, 10 μl of the activated carboxylic acid solutions and the cyclic peptide stocks were placed in Echo Qualified 384-well Low Dead Volume microplates (Labcyte), and 400 nl of cyclic peptide and 400 nl of HSTU-activated 5-chlorothiophene-2-carboxylic acid were transferred combinatorially to 384-well microplates (Greiner, 781076) using the Echo 650 acoustic liquid handler (Labcyte). Plates were centrifuged at 2,000 g for 2 min, and the reaction was allowed to proceed at room temperature for 8 h before addition of 39.2 μl of DMSO with a CERTUS FLEX liquid dispenser (Gyger). A volume of 25 μl of the resulting DMSO solutions was diluted with PBS buffer at pH 7.4 containing 5% DMSO in Nunc 96-well DeepWell polypropylene plates to afford 5 μM solutions of the acylated peptides.
The PAMPA plates were covered with a lid to avoid evaporation and incubated for 14 h at room temperature. Additionally, a diluted donor sample was prepared at the concentration representing theoretical maximum permeability (3 μM). Thereby, 30 μl of the donor sample before incubation was diluted with 20 μl of PBS buffer at pH 7.4 containing 5% DMSO. Volumes of 16 μl of each acceptor well and the diluted donor samples were transferred to a 384-well microplate (Greiner, 781076), and thrombin activity was measured as follows. Human α-thrombin (16 μl, 6 nM, Molecular Innovations) in assay buffer was dispensed into each well using a CERTUS FLEX liquid dispenser (Gyger), and plates were incubated at room temperature for 10 min. Then, 16 μl of a 150 μM fluorogenic thrombin substrate solution (Z-Gly-Gly-Arg-AMC, Bachem) in assay buffer containing 1% DMSO was added to each well, and thrombin inhibition was determined by measuring the fluorescent gain over time. Fluorescence intensity was measured on a Tecan Infinite M200 Pro microplate reader for 30 min at 25 °C with a fluorescent readout every 3 min (excitation: 360 nm, emission: 465 nm). Protease inhibition was calculated by comparing the enzymatic activity to a control without cyclic peptide.

Residual thrombin activity: Top sample	Residual thrombin activity: Equilibrated sample	Compound
53.7	31.7	O=C1C[C@H]2CCCN2C(=O)[C@H](Cc2ccccc2)NC(=O)[C@@H](NC(=O)c2ccc(Cl)s2)CSC/C=C/CSCCN1 [C1-X5-L4]
92.1	73.3	O=C1C[C@H]2CCCN2C(=O)[C@H](Cc2ccccc2)NC(=O)[C@@H](NC(=O)c2ccc(Cl)s2)CSCc2cccc(c2)CSCCN1 [C1-X5-L5]
82.2	60.8	O=C1C[C@H]2CCCN2C(=O)[C@H](Cc2ccccc2)NC(=O)[C@@H](NC(=O)c2ccc(Cl)s2)CSCc2ccccc2CSCCN1 [C1-X5-L6]
93.6	82.8	O=C1CSCCNC(=O)C[C@H]2CCCN2C(=O)[C@H](Cc2ccccc2)NC(=O)[C@@H](NC(=O)c2ccc(Cl)s2)CSC1 [C1-X5-L7]
89.8	93.2	O=C1C[C@H]2CCCN2C(=O)[C@@H](Cc2ccccc2)NC(=O)[C@@H](NC(=O)c2ccc(Cl)s2)CSCc2cccc(n2)CSCCN1 [C1-X31-L1]
103.5	90.9	O=C1C[C@H]2CCCN2C(=O)[C@@H](Cc2ccccc2)NC(=O)[C@@H](NC(=O)c2ccc(Cl)s2)CSCCS(=O)(=O)CCSCCN1 [C1-X31-L2]
95.4	95.0	O=C1C[C@H]2CCCN2C(=O)[C@@H](Cc2ccccc2)NC(=O)[C@@H](NC(=O)c2ccc(Cl)s2)CSCc2ccc(cc2)CSCCN1 [C1-X31-L3]
96.8	93.6	O=C1C[C@H]2CCCN2C(=O)[C@@H](Cc2ccccc2)NC(=O)[C@@H](NC(=O)c2ccc(Cl)s2)CSC/C=C/CSCCN1 [C1-X31-L4]
100.5	95.5	O=C1C[C@H]2CCCN2C(=O)[C@@H](Cc2ccccc2)NC(=O)[C@@H](NC(=O)c2ccc(Cl)s2)CSCc2cccc(c2)CSCCN1 [C1-X31-L5]
88.4	91.2	O=C1C[C@H]2CCCN2C(=O)[C@@H](Cc2ccccc2)NC(=O)[C@@H](NC(=O)c2ccc(Cl)s2)CSCc2ccccc2CSCCN1 [C1-X31-L6]
96.8	96.3	O=C1CSCCNC(=O)C[C@H]2CCCN2C(=O)[C@@H](Cc2ccccc2)NC(=O)[C@@H](NC(=O)c2ccc(Cl)s2)CSC1 [C1-X31-L7]
87.6	99.6	CN1C(=O)[C@@H](NC(=O)c2ccc(Cl)s2)CSCc2cccc(n2)CSCCNC(=O)C[C@H]2CCCN2C(=O)[C@@H]1Cc1ccccc1 [C1-X32-L1]
96.4	95.3	CN1C(=O)[C@@H](NC(=O)c2ccc(Cl)s2)CSCCS(=O)(=O)CCSCCNC(=O)C[C@H]2CCCN2C(=O)[C@@H]1Cc1ccccc1 [C1-X32-L2]
91.1	94.0	CN1C(=O)[C@@H](NC(=O)c2ccc(Cl)s2)CSCc2ccc(cc2)CSCCNC(=O)C[C@H]2CCCN2C(=O)[C@@H]1Cc1ccccc1 [C1-X32-L3]
95.6	100.2	CN1C(=O)[C@@H](NC(=O)c2ccc(Cl)s2)CSC/C=C/CSCCNC(=O)C[C@H]2CCCN2C(=O)[C@@H]1Cc1ccccc1 [C1-X32-L4]
98.6	96.6	CN1C(=O)[C@@H](NC(=O)c2ccc(Cl)s2)CSCc2cccc(c2)CSCCNC(=O)C[C@H]2CCCN2C(=O)[C@@H]1Cc1ccccc1 [C1-X32-L5]

Residual thrombin activity: Top sample	Residual thrombin activity: Equilibrated sample	Compound
91.7	86.4	CN1C(=O)[C@@H](NC(=O)c2ccc(Cl)s2)CSCc2ccccc2CSCCNC(=O)C[C@H]2CCCN2C(=O)[C@@H]1Cc1ccccc1 [C1-X32-L6]
95.4	96.7	CN1C(=O)[C@@H](NC(=O)c2ccc(Cl)s2)CSCC(=O)CSCCNC(=O)C[C@H]2CCCN2C(=O)[C@@H]1Cc1ccccc1 [C1-X32-L7]
92.7	96.7	COc1ccc(C[C@@H]2NC(=O)[C@@H](NC(=O)c3ccc(Cl)s3)CSCc3cccc(n3)CSCCNC(=O)C[C@H]3CCCN3C2=O)cc1 [C1-X33-L1]
98.0	99.8	COc1ccc(C[C@@H]2NC(=O)[C@@H](NC(=O)c3ccc(Cl)s3)CSCCS(=O)(=O)CCSCCNC(=O)C[C@H]3CCCN3C2=O)cc1 [C1-X33-L2]
96.4	98.9	COc1ccc(C[C@@H]2NC(=O)[C@@H](NC(=O)c3ccc(Cl)s3)CSCc3ccc(cc3)CSCCNC(=O)C[C@H]3CCCN3C2=O)cc1 [C1-X33-L3]
95.0	98.0	COc1ccc(C[C@@H]2NC(=O)[C@@H](NC(=O)c3ccc(Cl)s3)CSC/C=C/CSCCNC(=O)C[C@H]3CCCN3C2=O)cc1 [C1-X33-L4]
99.7	99.3	COc1ccc(C[C@@H]2NC(=O)[C@@H](NC(=O)c3ccc(Cl)s3)CSCc3cccc(c3)CSCCNC(=O)C[C@H]3CCCN3C2=O)cc1 [C1-X33-L5]
89.9	95.4	COc1ccc(C[C@@H]2NC(=O)[C@@H](NC(=O)c3ccc(Cl)s3)CSCc3ccccc3CSCCNC(=O)C[C@H]3CCCN3C2=O)cc1 [C1-X33-L6]
97.9	101.4	COc1ccc(C[C@@H]2NC(=O)[C@@H](NC(=O)c3ccc(Cl)s3)CSCC(=O)CSCCNC(=O)C[C@H]3CCCN3C2=O)cc1 [C1-X33-L7]
93.9	92.0	O=C1C[C@H]2CCCN2C(=O)[C@H](Cc2ccc(Cl)cc2)NC(=O)[C@@H](NC(=O)c2ccc(Cl)s2)CSCc2cccc(n2)CSCCN1 [C1-X34-L1]
95.9	98.3	O=C1C[C@H]2CCCN2C(=O)[C@H](Cc2ccc(Cl)cc2)NC(=O)[C@@H](NC(=O)c2ccc(Cl)s2)CSCCS(=O)(=O)CCSCCN1 [C1-X34-L2]
96.0	94.6	O=C1C[C@H]2CCCN2C(=O)[C@H](Cc2ccc(Cl)cc2)NC(=O)[C@@H](NC(=O)c2ccc(Cl)s2)CSCc2ccc(cc2)CSCCN1 [C1-X34-L3]
98.7	91.7	O=C1C[C@H]2CCCN2C(=O)[C@H](Cc2ccc(Cl)cc2)NC(=O)[C@@H](NC(=O)c2ccc(Cl)s2)CSC/C=C/CSCCN1 [C1-X34-L4]
97.0	98.5	O=C1C[C@H]2CCCN2C(=O)[C@H](Cc2ccc(Cl)cc2)NC(=O)[C@@H](NC(=O)c2ccc(Cl)s2)CSCc2cccc(c2)CSCCN1 [C1-X34-L5]
93.0	92.0	O=C1C[C@H]2CCCN2C(=O)[C@H](Cc2ccc(Cl)cc2)NC(=O)[C@@H](NC(=O)c2ccc(Cl)s2)CSCc2ccccc2CSCCN1 [C1-X34-L6]
100.2	98.8	O=C1CSCCNC(=O)C[C@H]2CCCN2C(=O)[C@H](Cc2ccc(Cl)cc2)NC(=O)[C@@H](NC(=O)c2ccc(Cl)s2)CSC1 [C1-X34-L7]
